According to ChEMBL document CHEMBL5303573, “Mapping human microbiome drug metabolism by gut bacteria and their genes” (Nature, 2019):

What was measured:
[1] = limosilactobacillus reuteri cf48-3a, 12 h, 2 µM
Description: The drug is tested on Lactobacillus reuteri CF48-3A strain: BEI HM-102 for biotransformation. The drug concentrations were measured before and after a 12-h incubation by liquid-chromatography-coupled mass spectrometry (LC–MS)

[2] = The drug is tested on Ruminococcus lactaris strain: ATCC29176 for biotransformation. The drug concentrations were measured before and after a 12-h incubation by liquid-chromatography-coupled mass spectrometry (LC–MS); settings: 2 µM
[3] = The drug is tested on Eggerthella lenta strain: ATCC25559 for biotransformation. The drug concentrations were measured before and after a 12-h incubation by liquid-chromatography-coupled mass spectrometry (LC–MS); settings: 2 µM
[4] = bacteroides eggerthii, 12 h, 2 µM
Description: The drug is tested on Bacteroides eggerthii strain: DSM20697 for biotransformation. The drug concentrations were measured before and after a 12-h incubation by liquid-chromatography-coupled mass spectrometry (LC–MS)

[5] = The drug is tested on Clostridium asparagiforme strain: DSM15981 for biotransformation. The drug concentrations were measured before and after a 12-h incubation by liquid-chromatography-coupled mass spectrometry (LC–MS); assay type: ADME; design: dose 2 uM, timepoint 0 vs 12 hours; settings: enterocloster asparagiformis, 2 µM
[6] = The drug is tested on Bacteroides xylanisolvens strain: DSM18836 for biotransformation. The drug concentrations were measured before and after a 12-h incubation by liquid-chromatography-coupled mass spectrometry (LC–MS); settings: 2 µM
[7] = The drug is tested on Eubacterium hallii strain: DSM3353 for biotransformation. The drug concentrations were measured before and after a 12-h incubation by liquid-chromatography-coupled mass spectrometry (LC–MS); settings: anaerobutyricum hallii, 2 µM
[8] = The drug is tested on Clostridium scindens strain: ATCC35704 for biotransformation. The drug concentrations were measured before and after a 12-h incubation by liquid-chromatography-coupled mass spectrometry (LC–MS); settings: 2 µM
[9] = The drug is tested on Bacteroides cellulosilyticus strain: DSM14838 for biotransformation. The drug concentrations were measured before and after a 12-h incubation by liquid-chromatography-coupled mass spectrometry (LC–MS); settings: 2 µM
[10] = The drug is tested on Anaerotruncus colihominis strain: DSM17241 for biotransformation. The drug concentrations were measured before and after a 12-h incubation by liquid-chromatography-coupled mass spectrometry (LC–MS); settings: 2 µM
[11] = The drug is tested on Bifidobacterium breve strain: DSM20213 for biotransformation. The drug concentrations were measured before and after a 12-h incubation by liquid-chromatography-coupled mass spectrometry (LC–MS); settings: 2 µM
[12] = The drug is tested on Eubacterium rectale strain: ATCC33656 for biotransformation. The drug concentrations were measured before and after a 12-h incubation by liquid-chromatography-coupled mass spectrometry (LC–MS); settings: agathobacter rectalis, 2 µM
[13] = The drug is tested on Bacteroides sp. WH2 strain: WH2 for biotransformation. The drug concentrations were measured before and after a 12-h incubation by liquid-chromatography-coupled mass spectrometry (LC–MS); settings: bacteroides sp. wh2, 12 h, 2 µM
[14] = The drug is tested on Bacteroides fragilis strain: ATCC43859 for biotransformation. The drug concentrations were measured before and after a 12-h incubation by liquid-chromatography-coupled mass spectrometry (LC–MS); settings: 2 µM
[15] = The drug is tested on Odoribacter splanchnicus strain: fecal isolate for biotransformation. The drug concentrations were measured before and after a 12-h incubation by liquid-chromatography-coupled mass spectrometry (LC–MS); settings: 2 µM
[16] = enterocloster bolteae, 12 h, 2 µM
Description: The drug is tested on Clostridium bolteae strain: ATCCBAA-613 for biotransformation. The drug concentrations were measured before and after a 12-h incubation by liquid-chromatography-coupled mass spectrometry (LC–MS)

[17] = The drug is tested on Eubacterium ventriosum strain: ATCC27560 for biotransformation. The drug concentrations were measured before and after a 12-h incubation by liquid-chromatography-coupled mass spectrometry (LC–MS); assay type: ADME; design: dose 2 uM, timepoint 0 vs 12 hours; settings: 2 µM
[18] = The drug is tested on Bacteroides fragilis strain: HMW615 for biotransformation. The drug concentrations were measured before and after a 12-h incubation by liquid-chromatography-coupled mass spectrometry (LC–MS); settings: 2 µM
[19] = bacteroides stercoris, 12 h, 2 µM
Description: The drug is tested on Bacteroides stercoris strain: ATCC43183 for biotransformation. The drug concentrations were measured before and after a 12-h incubation by liquid-chromatography-coupled mass spectrometry (LC–MS)

[20] = bifidobacterium adolescentis, 12 h, 2 µM
Description: The drug is tested on Bifidobacterium adolescentis strain: ATCC 15703 for biotransformation. The drug concentrations were measured before and after a 12-h incubation by liquid-chromatography-coupled mass spectrometry (LC–MS)

SMILES | Bacterial Biotransformation [1] | Bacterial Biotransformation [2] | Bacterial Biotransformation [3] | Bacterial Biotransformation [4] | Bacterial Biotransformation [5] | Bacterial Biotransformation [6] | Bacterial Biotransformation [7] | Bacterial Biotransformation [8] | Bacterial Biotransformation [9] | Bacterial Biotransformation [10] | Bacterial Biotransformation [11] | Bacterial Biotransformation [12] | Bacterial Biotransformation [13] | Bacterial Biotransformation [14] | Bacterial Biotransformation [15] | Bacterial Biotransformation [16] | Bacterial Biotransformation [17] | Bacterial Biotransformation [18] | Bacterial Biotransformation [19] | Bacterial Biotransformation [20]
Nc1ccc(/N=N/c2ccccc2)c(N)n1 [PHENAZOPYRIDINE] | Compound NOT metabolized | Compound metabolized | Compound metabolized | Compound metabolized | Compound metabolized | Compound metabolized | Compound metabolized | Compound metabolized | Compound metabolized | Compound metabolized | Compound metabolized | Compound metabolized | Compound metabolized | Compound metabolized | Compound metabolized | Compound metabolized | Compound metabolized | Compound metabolized | – | –
COc1ccc2[nH]c([S+]([O-])Cc3ncc(C)c(OC)c3C)nc2n1 (stereo unspecified) [TENATOPRAZOLE] | Compound metabolized | – | Compound metabolized | Compound metabolized | Compound metabolized | Compound metabolized | Compound metabolized | Compound metabolized | Compound metabolized | – | Compound metabolized | Compound metabolized | Compound metabolized | Compound metabolized | Compound metabolized | – | Compound metabolized | Compound metabolized | Compound metabolized | Compound metabolized
CCc1oc2ccccc2c1C(=O)c1cc(Br)c(O)c(Br)c1 [BENZBROMARONE] | – | Compound NOT metabolized | Compound NOT metabolized | Compound NOT metabolized | Compound NOT metabolized | Compound NOT metabolized | Compound NOT metabolized | Compound NOT metabolized | Compound NOT metabolized | Compound NOT metabolized | Compound metabolized | Compound NOT metabolized | Compound NOT metabolized | Compound NOT metabolized | Compound NOT metabolized | – | Compound NOT metabolized | Compound NOT metabolized | Compound NOT metabolized | Compound NOT metabolized
C#C[C@]1(O)CC[C@H]2[C@@H]3CCC4=Cc5oncc5C[C@]4(C)[C@H]3CC[C@@]21C [DANAZOL] | – | Compound metabolized | Compound metabolized | Compound metabolized | Compound metabolized | Compound metabolized | Compound metabolized | Compound metabolized | Compound metabolized | Compound metabolized | Compound metabolized | Compound metabolized | Compound metabolized | Compound metabolized | Compound metabolized | Compound metabolized | Compound metabolized | Compound metabolized | Compound metabolized | Compound metabolized
COc1ccc2c(c1OC)C(=O)O[C@@H]2[C@H]1c2c(cc3c(c2OC)OCO3)CCN1C [NOSCAPINE] | Compound metabolized | Compound metabolized | Compound NOT metabolized | Compound NOT metabolized | Compound metabolized | Compound metabolized | Compound metabolized | Compound metabolized | Compound metabolized | Compound metabolized | Compound metabolized | – | Compound NOT metabolized | Compound NOT metabolized | Compound metabolized | Compound metabolized | Compound metabolized | Compound NOT metabolized | Compound metabolized | Compound NOT metabolized
CNC(=C[N+](=O)[O-])NCCSCc1csc(CN(C)C)n1 [NIZATIDINE] | Compound NOT metabolized | Compound metabolized | Compound NOT metabolized | Compound metabolized | Compound metabolized | Compound metabolized | Compound metabolized | Compound metabolized | Compound metabolized | Compound metabolized | Compound metabolized | Compound metabolized | – | Compound NOT metabolized | – | Compound metabolized | Compound metabolized | Compound metabolized | Compound NOT metabolized | Compound metabolized
CC#C[C@]1(O)CC[C@H]2[C@@H]3CCC4=CC(=O)CCC4=C3[C@@H](c3ccc(N(C)C)cc3)C[C@@]21C [MIFEPRISTONE] | Compound NOT metabolized | Compound NOT metabolized | Compound NOT metabolized | – | Compound NOT metabolized | – | Compound NOT metabolized | Compound NOT metabolized | Compound NOT metabolized | Compound NOT metabolized | Compound metabolized | Compound NOT metabolized | Compound NOT metabolized | Compound metabolized | Compound NOT metabolized | Compound NOT metabolized | Compound NOT metabolized | Compound NOT metabolized | Compound metabolized | Compound NOT metabolized
CCOc1cc(CC(=O)N[C@@H](CC(C)C)c2ccccc2N2CCCCC2)ccc1C(=O)O [REPAGLINIDE] | – | Compound NOT metabolized | Compound NOT metabolized | Compound metabolized | Compound metabolized | Compound metabolized | Compound metabolized | Compound NOT metabolized | Compound metabolized | Compound NOT metabolized | Compound metabolized | Compound NOT metabolized | Compound NOT metabolized | Compound metabolized | Compound NOT metabolized | Compound metabolized | Compound NOT metabolized | Compound metabolized | Compound metabolized | Compound NOT metabolized
